The test system of one series is CT26 cells. The series can be described thus: Annexin V FITC / Propidium Iodide apoptosis flow cytometry. In kind it is cell-based, mouse. Conditions: CT26, 24 h treatment. The method, then: The capacity of the C1 complex to induce apoptotic death in cancer cells was assessed using flow cytometric analysis. This analysis involved treating cells with the C1 complex and subsequently staining them with Annexin V FITC and Propidium Iodide. […] In a similar vein, in a related context, NCI-H460 cancer cells, which are a line of human large-cell lung carcinoma cells, were subjected to treatment with binuclear platinum(II) complexes. These complexes feature 4′-substituted-2,2′:6′,2″-terpyridine ligands and were administered for a duration of 24 h. Following this treatment, there was a significant increase in the proportion of apoptotic cells, correlating strongly with exposure to these specific ligands.
The evaluation of apoptosis in cells subjected to treatment was conducted employing the Annexin V and Propidium Iodide double staining assay in accordance with the methodology outlined in prior studies. This approach enabled the determination of the percentage of apoptotic cells. In further experiments, cells were fixed and permeabilized using a permeabilization buffer provided by BD Bioscience, Heidelberg, Germany. […] The analysis of these treated cells was carried out using a FACS Calibur flow cytometer (BD Biosciences, San Jose, CA, USA) and the resulting data were meticulously analyzed with FlowJo software (v10.8.2). […]
Background: A flow cytometer gives signals particle by particle.

For a further series, the system named is CT-DNA. The series can be described thus: Ethidium bromide/CT-DNA fluorescence quenching (EB displacement). To be noted: EB/CT-DNA 1:1, 5 µM, PBS pH 7.4, room temperature, λex 527 nm, λem 612 nm. In kind it is binding. The text has this: Fluorescent spectroscopy allows the determination of the intercalation potential of compounds. Intercalation involves planar aromatic molecules binding between the base pairs of DNA chains, causing them to elongate. Ethidium bromide (EB) is commonly used as a DNA intercalator and produces high levels of fluorescent emissions at 612 nm when intercalating between DNA strands. However, the addition of compounds that can intercalate between DNA strands and suppress the effects of EB will reduce fluorescent emissions. If a complex is able to replace EB, fluorescence reduction will occur, indicating the complex’s ability to bind intercalatively. Figure 3 and Figures S10–S13 show the results of fluorescence titrations in the presence of intercalator EB, where the emission intensity of a constant CT-DNA/EB solution concentration of 5 µM was monitored with increasing complex concentration up to a ratio of 5.
To determine whether the complex could displace EB from the CT-DNA-EB complex, the interactions of the complex with CT-DNA were examined in the presence of EB. The CT-DNA-EB solution was formed by combining EB and CT-DNA solutions with a concentration of 5 μM at a pH of 7.4. The impact of the complex binding to the CT-DNA was measured by analyzing the fluorescence emission spectrum after the addition of the examined complexes solution in increasing concentration, Figure 3.
The binding affinity of the complexes C1–C5 to CT-DNA via intercalation was determined using fluorescence spectroscopy. All measurements were conducted at room temperature in 0.01 M PBS with a pH of 7.4. Fluorescence measurements were performed by adding increasing complex concentrations (0–50 μM) to a CT-DNA and EB solution. Before each measurement, the system was shaken at room temperature. The fluorescence intensity was measured with the wavelength of excitation at 527 nm and the wavelength of emission at 612 nm. The width of the excitation and emission slits (10 nm) and scan rate were maintained at a constant rate. The emission of the solution was recorded in the range of 550 to 750 nm. The Stern–Volmer constants, Ksv, were determined by Equation (2). I0/I = 1 + Ksv[Q](2) [Q] is the concentration of the complex, I0 and I represent emission intensities in the absence and presence of complex, and Ksv is the Stern–Volmer constant obtained from the slope of the plot of I0/I vs. [Q] [25, 26, 27, 28].

Series [1] deals with mouse mesenchymal stem cells (mMSC). The series can be described thus: MTT cytotoxicity assay, mMSC. Conditions: 48 h. Format: cell-based. The method, then:
(§1) The in vitro cytotoxicity of newly synthesized mono- and heteronuclear platinum(II)/and zinc(II) complexes, featuring a 4,4′,4″-tri-tert-butyl-2,2′:6′,2″-terpyridine ligand (designated as C1–C5), was assessed using MTT assay procedures. This evaluation targeted various cell lines: mouse colorectal carcinoma (CT26), human colorectal carcinoma (HCT116 and SW480), and non-cancerous mouse mesenchymal stem cells (mMSC). These cell lines were exposed to synthesized complexes for 48 h, with concentrations ranging from 1.17 to 150 μM.
In the context of developing low-toxicity drugs, it is imperative to evaluate the antiproliferative activity against normal cells. The in vitro toxicity of the tested complexes toward normal mouse mesenchymal stem cells (mMSC) was examined. […] These findings indicate the possibility of enhanced in vivo tolerance for this complex.
(§2) In our study, various cell lines were cultured, including mouse colorectal carcinoma (CT26), human colorectal carcinoma (HCT116 and SW480) obtained from ATCC, USA, and mouse mesenchymal stem cells (mMSC, Gibco), New York, NY, USA). These cell lines were consistently maintained in complete Dulbecco’s Modified Eagle Medium (DMEM) supplemented with 10% fetal bovine serum (FBS) (Sigma Aldrich, St. Louis, MO, USA), 100 IU/mL penicillin, and 100 μg/mL streptomycin antibiotics (Invitrogen, Carlsbad, CA, USA). The cultures were incubated at 37 °C in a humidified atmosphere of 5% carbon dioxide (CO2). […] The viability and count of the cells were determined using Trypan blue staining, ensuring the accuracy and reliability of the experimental outcomes.
(§3) The cytotoxic effects of five newly synthesized complexes, alongside cisplatin, were assessed through the MTT assay method, in line with previously established protocols. During the exponential growth phase, cells were collected from culture flasks, counted, and then seeded in 96-well culture plates at a density of 5·10^3 cells per well. Subsequent treatment involved exposing these cells to varying concentrations of the newly synthesized complexes and cisplatin (ranging from 1.17 to 150 μM) for a duration of 48 h, with fresh complete medium serving as the control. The results were quantified relative to the control (untreated cells), providing a comparative measure of cytotoxicity. Additionally, IC50 values, representing the concentration required to inhibit 50% of the cell viability, were calculated using Microsoft Office Excel 2010. Lastly, the data were presented as percentages of viable cells in accordance with the methodology outlined in the referenced study, facilitating a comprehensive understanding of the anticancer potential of these compounds.
For orientation: Tetrazolium assays rely on reduction of a dye to a coloured formazan, in cell work by metabolically active cells.

Series [2] deals with human colorectal carcinoma (HCT116). The series can be described thus: MTT cytotoxicity assay, HCT116. Format: cell-based. Conditions: 48 h. The method, then:
as §1, §2, §3

The results in this text go back to paper PMC10931776, “Modes of Interactions with DNA/HSA Biomolecules and Comparative Cytotoxic Studies of Newly Synthesized Mononuclear Zinc(II) and Heteronuclear Platinum(II)/Zinc(II) Complexes toward Colorectal Cancer Cells” (International Journal of Molecular Sciences, 2024).

Consider [ZnCl2(terpy^t^Bu)] [C1], for which the “Induction of apoptotic cell death” value with CT26 cells (Annexin V FITC/PI) was “entered both early and late stages of apoptosis”. Besides, the “Quadrant number upper left of PI / Annexin V plot (necrotic, AnnV−PI+)” value with CT26 cells (representative FACS plot, untreated 1.55) is given as “underwent necrosis”. In the series on CT-DNA, the “Stern–Volmer constant Ksv, CT-DNA” value is reported as 2.2 ± 0.1 10^4 M^–1. In addition, the “Cytotoxic effect on mMSC compared to cancer cells (HCT116, SW480, CT26)” value in series [1] (concentrations 1.17 to 18.75 μM) is on record as “lower cytotoxic effect”. Moreover, the half-maximal inhibitory concentration (IC50) – broadly, the concentration that inhibits the measured activity by half – in series [1] (non-cancerous cells, read-out: IC50 ± SEM, mMSCs) worked out at 56.7 ± 6.93 µM; in series [2] (read-out: IC50 ± SEM, HCT 116), 88.2 ± 48.5 µM. Besides, in series [2], the “Selectivity Index (IC50 mMSC/IC50), HCT 116” value came to 0.6.
